# Source: patent US20080132549A1, “Sulphur-Linked Imidazone Compounds for the Treatment of Hiv/Aids” (Pfizer Inc., priority 2004, published 2008)
# Tested on: not given
# Test: not given
# Details: not given
row,melting point [°C],Structure (SMILES)
1,156 to 158,CCn1c(COC)nc(C(C)C)c1Sc1cc(C#N)cc(C#N)c1
2,133 to 135,CCc1nc(CN)n(CC)c1Sc1cc(C#N)cc(C#N)c1
3,167 to 169,CCn1c(CO)nc(C(C)C)c1Sc1cc(C#N)cc(C#N)c1
4,170 to 172,CCn1c(COC(N)=O)nc(C2CC2)c1Sc1cc(C#N)cc(C#N)c1
5,174 to 175,CCn1c(COC(N)=O)nc(C(C)C)c1Sc1cc(C#N)cc(C#N)c1
6,122 to 124,CCn1c(CCO)nc(C2CC2)c1Sc1cc(C#N)cc(C#N)c1

# The next lines start with the compound.
row,Structure (SMILES),melting point [°C]
1,CCn1c(CO)nc(C(F)(F)F)c1Sc1cc(C#N)cc(C#N)c1 [Example 9],184 to 186
2,CCc1nc(CO)n(CC)c1Sc1cc(C#N)cc(C#N)c1,141 to 143

# Target: T1, purified recombinant HIV-1 reverse transcriptase (Human immunodeficiency virus type 1 group M subtype B, UniProt P04585)
# T1 construct: purified recombinant HIV-1 reverse transcriptase (RT, EC, 2.7.7.49); made in house; host or cells: Escherichia coli
# Test: Inhibition of HIV-1 reverse transcriptase enzyme ([3H]-Flashplate enzyme assay, 384-well)
# Assay type: biochemical
# Details: recombinant HIV-1 RT expressed in Escherichia Coli; 5% final DMSO
# Description: The activity of the compounds of the invention as reverse transcriptase inhibitors may be measured using the following assay.
# Inhibition of HIV-1 Reverse Transcriptase Enzyme
# The reverse transcriptase activity of the compounds of the invention may be assayed as follows. Using the purified recombinant HIV-1 reverse transcriptase (RT, EC, 2.7.7.49) obtained by expression in Escherichia Coli, a 384-well plate assay system was established for assaying a large number of samples using the [3H]-Flashplate enzyme assay system (NEN-SMP 410A) following the manufacturer's recommendations. The compounds were dissolved in 100% DMSO and diluted with the appropriate buffer to a 5% final DMSO concentration. The inhibitory activity was expressed in percent inhibition relative to the DMSO control.
row,Structure (SMILES),IC50 [nM]
1,"CCc1nc(CCOC(N)=O)n(C)c1Sc1cc(C#N)cc(C#N)c1 [Example 4, Carbamic acid 2-[5-(3,5-dicyano-phenylsulfanyl)-4-ethyl-1-methyl-1H-imidazol-2-yl]-ethyl ester]",926
2,Cc1nc(C(F)(F)F)c(Sc2cc(C#N)cc(C#N)c2)n1C [Example 38],1070
3,"CCc1nc(CCOC)n(CC)c1Sc1cc(C#N)cc(C#N)c1 [Example 23, 5-[3,5-Diethyl-2-(2-methoxy-ethyl)-3H-imidazol-4-ylsulfanyl]-isophthalonitrile]",147
4,CCn1c(CO)nc(C(F)(F)F)c1Sc1cc(C#N)cc(C#N)c1 [Example 9],1160
5,Cc1nc(C2CC2)c(Sc2cc(C#N)cc(C#N)c2)n1Cc1ccncc1 [Example 40],135
6,"Cn1c(COC(N)=O)nc(C2CC2)c1Sc1cc(C#N)cc(C#N)c1 [Example 14, Carbamic acid 4-cyclopropyl-5-(3,5-dicyano-phenylsulfanyl)-1-methyl-1H-imidazol-2-ylmethyl ester]",353
7,"CCc1nc(CCO)n(CC)c1Sc1cc(C#N)cc(C#N)c1 [Example 1, 5-[3,5-Diethyl-2-(2-hydroxyethyl)-3H-imidazol-4-ylsulfanyl]-isophthalonitrile]",38
